Test results taken from ChEMBL document CHEMBL6071161, “Drug repurposing against antibiotic resistant bacterial pathogens” (2024).
≈ marks a conversion by molar mass, not a printed value.

Tests used:
Assay type in all cases: functional
Helicobacter pylori [1] = assay: Antibacterial activity against Helicobacter pylori assessed as inhibition of bacterial growth by broth micro-dilution assay
Neisseria gonorrhoeae [2] = assay: Antibacterial activity against resistant Neisseria gonorrhoeae assessed inhibition of bacterial growth
Staphylococcus aureus [3] = assay: Antibiofilm activity against Staphylococcus aureus ATCC 25923 assessed as inhibition of biofilm formation incubated for 24 hrs by crystal violet staining based analysis
Enterococcus faecium [4] = assay: Antibacterial activity against Enterococcus faecium assessed as reduction in bacterial growth
Staphylococcus aureus [5] = assay: Antibacterial activity against methicillin-resistant Staphylococcus aureus ATCC 43300 assessed as reduction in bacterial growth by CLSI protocol based broth micro-dilution method
Klebsiella pneumoniae [6] = assay: Antibacterial activity against Klebsiella pneumoniae ATCC 700603 assessed as reduction in bacterial growth by microbroth dilution assay
Pseudomonas aeruginosa [7] = assay: Antibacterial activity against Pseudomonas aeruginosa PAO1 assessed as bacterial growth inhibition measured after 18 hrs by CLSI protocol based two-fold serial microdilution method
Staphylococcus aureus [8] = assay: Antimicrobial activity against methicillin-sensitive Staphylococcus aureus ATCC 29213 assessed as reduction in bacterial growth by CLSI protocol based analysis
Staphylococcus aureus [9] = assay: Antimicrobial activity against […] Staphylococcus aureus ATCC 25923 assessed as reduction in microbial growth by CLSI protocol based analysis
Neisseria gonorrhoeae [10] = assay: Antibacterial activity against Neisseria gonorrhoeae ATCC 49226 assessed as reduction in bacterial growth incubated for 20 to 24 hrs by CLSI-based protocol based two-fold serial microdilution method; conditions: time 20-24 hrs
Staphylococcus aureus [11] = assay: Antibacterial activity against vancomycin-resistant Staphylococcus aureus VRS 1 assessed as reduction in bacterial growth
Staphylococcus aureus [12] = assay: Antimicrobial activity against methicillin-resistant Staphylococcus aureus ATCC 29213 assessed as reduction in microbial growth by CLSI brith micro-dilution method
Staphylococcus aureus [13] = assay: Antibacterial activity against Staphylococcus aureus ATCC 25923 assessed as reduction in microbial growth after 24 hrs by two-fold serial dilution method
Helicobacter pylori [14] = assay: Antibacterial activity against Helicobacter pylori ATCC 43504 assessed as reduction in bacterial growth incubated for 24 hrs by broth micro-dilution method
Pseudomonas aeruginosa [15] = assay: Antibacterial activity against Pseudomonas aeruginosa ATCC 27853 assessed as reduction in bacterial growth by broth microdilution method
Neisseria gonorrhoeae [16] = assay: Antibacterial activity against Neisseria gonorrhoeae
Acinetobacter baumannii = assay: Antibacterial activity against Acinetobacter baumannii BAA-1605 assessed as reduction in bacterial growth
Staphylococcus aureus [17] = assay: Antimicrobial activity against Staphylococcus aureus ATCC 25923 assessed as reduction in microbial growth after 24 hrs by CLSI based broth microdilution method
Enterococcus faecalis [18] = assay: Antimicrobial activity against Enterococcus faecalis ATCC 29212 assessed as reduction in microbial growth incubated for 16 to 20 hrs by CLSI-protocol based Mueller-Hinton broth assay; conditions: time 16-20 hrs
Pseudomonas aeruginosa [19] = assay: Antibacterial activity against Pseudomonas aeruginosa ATCC 27853 assessed as bacterial growth inhibition measured after 18 hrs by CLSI protocol based two-fold serial microdilution method
Enterococcus faecium [20] = assay: Antibacterial activity against vancomycin-resistant Enterococcus faecium assessed as reduction in bacterial growth CLSI-based double dilution method
Staphylococcus aureus [21] = assay: Antibacterial activity against methicillin-resistant Staphylococcus aureus ATCC 43300 assessed as reduction in bacterial growth by CLSI protocol based two-fold serial broth microdilution method
Enterococcus faecalis [22] = assay: Antibacterial activity against […] Enterococcus faecalis ATCC 29212 assessed as reduction in bacterial growth by CLSI protocol based two-fold serial broth microdilution method
Pseudomonas aeruginosa [23] = assay: Antibacterial activity against Pseudomonas aeruginosa assessed as inhibition of bacterial growth incubated for 24 hrs by broth microdilution method
Klebsiella pneumoniae [24] = assay: Antibacterial activity against Klebsiella pneumoniae ATCC 10031 assessed as reduction in microbial growth after 24 hrs by two-fold serial dilution method
Helicobacter pylori [25] = assay: Antibacterial activity against Helicobacter pylori ATCC 700392 assessed as reduction in bacterial growth incubated for 24 hrs by broth micro-dilution method
Staphylococcus aureus [26] = assay: Antibacterial activity against Staphylococcus aureus RN4220 assessed as inhibition of microbial growth
Enterococcus faecium [27] = assay: Antibacterial activity against Enterococcus faecium

Compound `O=C(O)C(=O)CBr` [BROMOPYRUVATE] has an MIC (Helicobacter pylori [1]) of 32 µg/mL (≈ 192 µM).
For `Cc1c(Cl)cccc1Nc1ccccc1C(=O)O` [TOLFENAMIC ACID], the MIC50 (Neisseria gonorrhoeae [2]) was 4 µg/mL (≈ 15.3 µM).
`O=C(Nc1ccc(C(F)(F)F)cc1)Nc1ccc(C(F)(F)F)cc1` was tested, and the MBEC (Staphylococcus aureus [3]) was 0.78 µmol/L and the MIC (Enterococcus faecium [4]) was 1.6 µM (≈ 0.557 µg/mL).
Work on `NC(=O)c1ccccc1O` [SALICYLAMIDE] yielded an MIC (Neisseria gonorrhoeae [2]) of 8 µg/mL (≈ 58.3 µM).
With `CC[C@H](c1ccc(O)cc1)[C@@H](CC)c1ccc(O)cc1` [HEXESTROL] the MIC (Staphylococcus aureus [5]) was 16 µg/mL (≈ 59.2 µM).
Compound `Nc1c2ccccc2nc2ccccc12` [AMINACRINE] has an MIC (Klebsiella pneumoniae [6]) of 8 µg/mL (≈ 41.2 µM).
Compound `N[C@@H](CC(=O)N1CCn2c(nnc2C(F)(F)F)C1)Cc1cc(F)c(F)cc1F` [SITAGLIPTIN] has an MIC (Pseudomonas aeruginosa [7]) of 16 µg/mL (≈ 39.3 µM).
With `CC1=NN(c2ccc(C)c(C)c2)C(=O)/C1=N\Nc1cccc(-c2cccc(C(=O)O)c2)c1O` [ELTROMBOPAG] the MIC (Staphylococcus aureus [8]) was 2 µg/mL (≈ 4.52 µM) and the MIC (Staphylococcus aureus [9]) was 2 µg/mL.
`Oc1c(I)cc(I)c2cccnc12` [IODOQUINOL] showed an MIC (Neisseria gonorrhoeae [10]) of 0.1 µM (≈ 0.0397 µg/mL).
`Cc1ccc(-c2cc(C(F)(F)F)nn2-c2ccc(S(N)(=O)=O)cc2)cc1` [CELECOXIB] gave an MIC (Staphylococcus aureus [11]) of 128 µg/mL (≈ 336 µM) and an MIC (Staphylococcus aureus [12]) of 32 µg/mL.
Work on `COc1cc(/C=C/C(=O)CC(=O)/C=C/c2ccc(O)c(OC)c2)ccc1O` [CURCUMIN] yielded an MIC (Staphylococcus aureus [13]) of 100 µg/mL.
For `CN[C@H]1CC[C@@H](c2ccc(Cl)c(Cl)c2)c2ccccc21` [SERTRALINE], the MIC (Helicobacter pylori [14]) was 32 µg/mL (≈ 104 µM).
In the case of `O=C(O)c1ccccc1Nc1cccc(C(F)(F)F)c1` [FLUFENAMIC ACID], the MIC50 (Neisseria gonorrhoeae [2]) is reported as 4 µg/mL (≈ 14.2 µM).
`CC/C(=C(\c1ccc(O)cc1)c1ccc(OCCN(C)C)cc1)c1ccccc1` [AFIMOXIFENE] gave an MIC (Pseudomonas aeruginosa [15]) of 16 µg/mL (≈ 41.3 µM).
Compound `CN(C)Cc1ccc2c(Cl)cc(Cl)c(O)c2n1` has an MIC (Neisseria gonorrhoeae [16]) of 0.31 µg/mL (≈ 1.14 µM).
Work on `Oc1cccc2cccnc12` [OXYQUINOLINE] yielded an MIC (Neisseria gonorrhoeae [10]) of 0.08 µM (≈ 0.0116 µg/mL).
For `CO[C@@]12[C@H](COC(N)=O)C3=C(C(=O)C(C)=C(N)C3=O)N1C[C@@H]1N[C@@H]12` [MITOMYCIN], the MIC (Acinetobacter baumannii) was 20 µg/mL (≈ 59.8 µM).
`Oc1c(I)cc(Cl)c2cccnc12` [CLIOQUINOL] showed an MIC (Neisseria gonorrhoeae [10]) of 0.28 µM (≈ 0.0855 µg/mL).
Work on `CN(C)C(=S)SSC(=S)N(C)C` [THIRAM] yielded an MIC90 (Staphylococcus aureus [17]) of 4 µg/mL.
Compound `CC(C)Oc1ccc(/C=N/NC(=N)N/N=C/c2ccc(OC(C)C)cc2)cc1` has an MIC (Enterococcus faecalis [18]) of 1 µg/mL.
In the case of `CN[C@@H]1[C@@H](O[C@H]2O[C@H](CO)[C@@H](N)[C@H](O)[C@H]2O)O[C@H]2C[C@@H](N)[C@@H](O[C@H]3[C@H](O)[C@@H](O)[C@H](N)C[C@@H]3N)O[C@@H]2[C@@H]1O`, the MIC (Pseudomonas aeruginosa [19]) is reported as 32 µg/mL (≈ 59.3 µM).
Compound `O=C(Nc1ccc([N+](=O)[O-])cc1Cl)c1cc(Cl)ccc1O` [NICLOSAMIDE] has an MIC (Enterococcus faecium [20]) of 1 µg/mL (≈ 3.06 µM), an MIC (Staphylococcus aureus [21]) of 0.06 µg/mL (≈ 0.183 µM) and an MIC (Enterococcus faecalis [22]) of 0.125 µg/mL (≈ 0.382 µM).
`CC/C(=C(\c1ccccc1)c1ccc(OCCNC)cc1)c1ccccc1` [N-DESMETHYLTAMOXIFEN] gave an MIC (Pseudomonas aeruginosa [15]) of 16 µg/mL (≈ 44.8 µM).
With `NC[C@H]1O[C@H](O[C@H]2[C@H](O)[C@@H](O[C@H]3O[C@H](CO)[C@@H](O)[C@H](N)[C@H]3O)[C@H](N)C[C@@H]2N)[C@H](N)C[C@@H]1O` [TOBRAMYCIN] the MIC90 (Pseudomonas aeruginosa [23]) was 2.2 µg/mL (≈ 4.71 µM).
`Cc1cc(C2CCCCC2)n(O)c(=O)c1` [CICLOPIROX] gave an MIC (Klebsiella pneumoniae [24]) of 5 µg/mL.
With `CCOC(=O)C1=C(C)NC(C)=C(C(=O)OC)C1c1cccc([N+](=O)[O-])c1` (stereo not given) [NITRENDIPINE] the MIC (Helicobacter pylori [25]) was 4 µg/mL (≈ 11.1 µM).
`O=C(Nc1cc(Cl)cc(Cl)c1O)c1c(O)c(Cl)cc(Cl)c1Cl` [OXYCLOZANIDE] gave an MIC (Staphylococcus aureus [26]) of 0.125 µg/mL.
In the case of `COCCOC(=O)C1=C(C)NC(C)=C(C(=O)OC(C)C)C1c1cccc([N+](=O)[O-])c1` (stereo not given) [NIMODIPINE], the MIC (Helicobacter pylori [25]) is reported as 4 µg/mL (≈ 9.56 µM).
`Oc1c(Cl)cc(Cl)c2cccnc12` [CHLOROXINE] was tested, and the MIC (Neisseria gonorrhoeae [10]) was 0.28 µM (≈ 0.0599 µg/mL).
With `CN[C@H](CC(C)C)C(=O)N[C@H]1C(=O)N[C@@H](CC(N)=O)C(=O)N[C@H]2C(=O)N[C@H]3C(=O)N[C@H](C(=O)N[C@H](C(=O)O)c4cc(O)cc(O)c4-c4cc3ccc4O)[C@H](O)c3ccc(c(Cl)c3)Oc3cc2cc(c3O[C@@H]2O[C@H](CO)[C@@H](O)[C@H](O)[C@H]2O[C@H]2C[C@](C)(N)[C@H](O)[C@H](C)O2)Oc2ccc(cc2Cl)[C@H]1O` [VANCOMYCIN] the MIC (Enterococcus faecium [27]) was 8 µg/mL (≈ 5.52 µM).
